Data reported in ChEMBL document CHEMBL1201862, “PubChem BioAssay data set” (2004).
The source made the active and inactive calls.

How the values were obtained:
[1] = molecular target: Large T antigen (Simian virus 40, UniProt P03070); assay type: functional, Betapolyomavirus macacae;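 note: Confirmatory-stage PubChem screen for compounds that inhibit SV40 T antigen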
[2] = molecular target: Paired box protein Pax-8 (Homo sapiens, UniProt Q06710); assay: PAX8 transcriptional activity inhibition in RMG-I – RMG-I cells, luciferase, cherry-pick, dose response (AID 687027); assay type: functional, cell-based;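 note: luciferase reporter driven by Pax8 target thyroperoxidase promoter measured by SteadyGlo luminescence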
[3] = molecular target: T1, Exodeoxyribonuclease V (Escherichia coli (strain K12), UniProt P04993+P07648+P08394); assay: RecBCD inhibition via phage-restricted bacterial growth – absorbance, V66 E. coli, mutant T4 phage, counter-screen for AddAB inhibitor project, dose response (AID 492957); assay type: functional, cell-based, Escherichia coli str. K-12 substr. MG1655
T1 sequence (P04993 whole entry): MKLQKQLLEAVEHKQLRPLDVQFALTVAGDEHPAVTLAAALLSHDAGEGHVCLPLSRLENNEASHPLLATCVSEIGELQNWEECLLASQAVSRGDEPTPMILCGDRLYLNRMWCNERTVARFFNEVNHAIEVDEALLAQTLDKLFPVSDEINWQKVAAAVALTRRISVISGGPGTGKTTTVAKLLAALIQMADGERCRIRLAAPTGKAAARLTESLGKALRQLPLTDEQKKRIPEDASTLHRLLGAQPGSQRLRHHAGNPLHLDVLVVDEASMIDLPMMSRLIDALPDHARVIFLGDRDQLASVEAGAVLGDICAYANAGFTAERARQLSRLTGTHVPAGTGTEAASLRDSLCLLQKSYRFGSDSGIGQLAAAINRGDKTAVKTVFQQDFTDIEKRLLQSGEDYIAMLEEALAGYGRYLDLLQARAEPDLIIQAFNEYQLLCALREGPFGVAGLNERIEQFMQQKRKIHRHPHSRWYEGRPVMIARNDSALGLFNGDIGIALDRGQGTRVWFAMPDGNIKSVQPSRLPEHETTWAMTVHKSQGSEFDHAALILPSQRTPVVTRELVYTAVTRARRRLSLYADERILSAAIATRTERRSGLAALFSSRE
T1 sequence (P07648 whole entry): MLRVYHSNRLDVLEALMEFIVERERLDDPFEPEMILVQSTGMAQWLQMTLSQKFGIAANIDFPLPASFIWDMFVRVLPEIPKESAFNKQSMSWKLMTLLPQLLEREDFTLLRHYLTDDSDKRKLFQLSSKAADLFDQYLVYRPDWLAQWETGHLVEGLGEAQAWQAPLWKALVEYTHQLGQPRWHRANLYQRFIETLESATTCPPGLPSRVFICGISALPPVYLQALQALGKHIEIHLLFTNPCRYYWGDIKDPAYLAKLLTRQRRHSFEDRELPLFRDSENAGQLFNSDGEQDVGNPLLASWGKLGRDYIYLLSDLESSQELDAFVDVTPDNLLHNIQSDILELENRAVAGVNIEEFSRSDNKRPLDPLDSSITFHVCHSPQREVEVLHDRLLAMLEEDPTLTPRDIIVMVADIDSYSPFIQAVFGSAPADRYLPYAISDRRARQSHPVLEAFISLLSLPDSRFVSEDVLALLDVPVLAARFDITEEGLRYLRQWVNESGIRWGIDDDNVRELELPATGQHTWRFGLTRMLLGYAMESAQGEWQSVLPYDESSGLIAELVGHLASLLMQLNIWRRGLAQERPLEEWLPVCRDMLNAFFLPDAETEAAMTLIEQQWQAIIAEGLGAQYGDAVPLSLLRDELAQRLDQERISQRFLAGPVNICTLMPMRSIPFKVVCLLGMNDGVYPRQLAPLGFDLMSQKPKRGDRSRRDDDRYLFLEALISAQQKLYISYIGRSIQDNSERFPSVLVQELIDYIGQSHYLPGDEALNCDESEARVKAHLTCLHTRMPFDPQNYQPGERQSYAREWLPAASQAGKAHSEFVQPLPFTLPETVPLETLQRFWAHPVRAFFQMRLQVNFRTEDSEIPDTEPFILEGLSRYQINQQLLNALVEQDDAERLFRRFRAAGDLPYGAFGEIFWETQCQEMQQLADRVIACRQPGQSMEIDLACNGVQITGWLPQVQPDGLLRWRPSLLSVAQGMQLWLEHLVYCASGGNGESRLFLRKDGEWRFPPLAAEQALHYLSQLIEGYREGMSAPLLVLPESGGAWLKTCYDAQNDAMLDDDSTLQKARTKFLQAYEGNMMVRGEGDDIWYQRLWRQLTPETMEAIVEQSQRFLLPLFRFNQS
T1 sequence (P08394 whole entry): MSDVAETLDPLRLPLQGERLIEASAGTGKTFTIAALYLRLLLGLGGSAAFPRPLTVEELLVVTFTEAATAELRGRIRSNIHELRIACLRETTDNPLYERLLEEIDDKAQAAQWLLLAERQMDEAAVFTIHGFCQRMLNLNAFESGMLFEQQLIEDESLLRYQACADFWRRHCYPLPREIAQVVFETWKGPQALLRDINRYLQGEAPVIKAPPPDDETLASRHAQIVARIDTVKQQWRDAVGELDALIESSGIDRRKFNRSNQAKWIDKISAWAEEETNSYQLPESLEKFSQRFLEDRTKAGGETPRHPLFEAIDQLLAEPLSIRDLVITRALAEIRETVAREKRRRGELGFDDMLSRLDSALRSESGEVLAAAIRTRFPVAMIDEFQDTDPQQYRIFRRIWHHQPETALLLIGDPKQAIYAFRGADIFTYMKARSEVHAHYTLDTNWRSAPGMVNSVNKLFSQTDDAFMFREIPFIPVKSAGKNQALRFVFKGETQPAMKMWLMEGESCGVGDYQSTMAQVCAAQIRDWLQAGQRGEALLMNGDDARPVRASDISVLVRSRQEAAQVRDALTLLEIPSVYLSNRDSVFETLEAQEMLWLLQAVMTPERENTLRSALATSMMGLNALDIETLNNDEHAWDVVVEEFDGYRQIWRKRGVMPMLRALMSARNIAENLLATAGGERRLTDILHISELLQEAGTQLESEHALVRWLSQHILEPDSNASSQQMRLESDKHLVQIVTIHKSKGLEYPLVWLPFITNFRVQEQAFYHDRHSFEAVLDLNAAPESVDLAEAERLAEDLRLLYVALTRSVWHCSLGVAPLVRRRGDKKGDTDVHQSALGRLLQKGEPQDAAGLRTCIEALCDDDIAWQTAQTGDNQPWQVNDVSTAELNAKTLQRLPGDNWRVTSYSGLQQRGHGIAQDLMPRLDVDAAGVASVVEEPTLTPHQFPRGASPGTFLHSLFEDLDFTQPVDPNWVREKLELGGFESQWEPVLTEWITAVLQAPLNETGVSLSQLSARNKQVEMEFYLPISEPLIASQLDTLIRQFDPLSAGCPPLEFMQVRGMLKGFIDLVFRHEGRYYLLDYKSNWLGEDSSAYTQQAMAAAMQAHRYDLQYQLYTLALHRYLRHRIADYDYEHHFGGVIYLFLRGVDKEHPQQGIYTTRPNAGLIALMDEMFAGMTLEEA

[4] = molecular target: Ras and Rab interactor 1/Tyrosine-protein kinase ABL1 (Homo sapiens, UniProt P00519+Q13671); assay type: functional;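 note: biochemical TR-FRET dose-response test measuring inhibition of binding between Rin1 and Abl proteins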
Ras and Rab interactor 1/Tyrosine-protein kinase ABL1, sequence (P00519 whole entry): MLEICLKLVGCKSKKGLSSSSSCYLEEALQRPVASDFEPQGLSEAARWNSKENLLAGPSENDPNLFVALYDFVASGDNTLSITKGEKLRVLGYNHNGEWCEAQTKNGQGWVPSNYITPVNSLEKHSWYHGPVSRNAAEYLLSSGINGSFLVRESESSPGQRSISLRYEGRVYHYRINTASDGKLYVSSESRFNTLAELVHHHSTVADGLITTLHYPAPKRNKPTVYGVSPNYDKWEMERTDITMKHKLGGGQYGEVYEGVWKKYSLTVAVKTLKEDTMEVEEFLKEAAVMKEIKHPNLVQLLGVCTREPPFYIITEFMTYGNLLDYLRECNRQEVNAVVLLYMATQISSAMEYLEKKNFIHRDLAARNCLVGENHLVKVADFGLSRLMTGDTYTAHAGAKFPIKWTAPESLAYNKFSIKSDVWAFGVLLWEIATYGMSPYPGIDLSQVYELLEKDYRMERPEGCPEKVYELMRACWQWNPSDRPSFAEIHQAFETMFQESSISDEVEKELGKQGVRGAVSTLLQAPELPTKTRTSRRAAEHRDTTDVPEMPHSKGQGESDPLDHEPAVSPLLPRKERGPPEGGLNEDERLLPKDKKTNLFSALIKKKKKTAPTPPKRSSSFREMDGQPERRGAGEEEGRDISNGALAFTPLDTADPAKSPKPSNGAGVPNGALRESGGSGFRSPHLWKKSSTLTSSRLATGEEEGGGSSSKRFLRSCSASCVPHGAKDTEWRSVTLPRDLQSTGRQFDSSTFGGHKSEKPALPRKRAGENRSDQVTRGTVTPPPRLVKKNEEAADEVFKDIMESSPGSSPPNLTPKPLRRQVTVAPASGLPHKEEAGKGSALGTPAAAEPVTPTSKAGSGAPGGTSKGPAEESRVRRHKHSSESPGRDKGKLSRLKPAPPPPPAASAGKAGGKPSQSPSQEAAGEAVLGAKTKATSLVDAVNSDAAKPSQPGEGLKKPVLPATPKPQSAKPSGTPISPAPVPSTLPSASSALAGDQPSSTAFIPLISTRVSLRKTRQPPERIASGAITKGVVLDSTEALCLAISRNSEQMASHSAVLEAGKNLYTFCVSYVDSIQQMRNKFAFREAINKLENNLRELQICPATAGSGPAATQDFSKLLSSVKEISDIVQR
Ras and Rab interactor 1/Tyrosine-protein kinase ABL1, sequence (Q13671 whole entry): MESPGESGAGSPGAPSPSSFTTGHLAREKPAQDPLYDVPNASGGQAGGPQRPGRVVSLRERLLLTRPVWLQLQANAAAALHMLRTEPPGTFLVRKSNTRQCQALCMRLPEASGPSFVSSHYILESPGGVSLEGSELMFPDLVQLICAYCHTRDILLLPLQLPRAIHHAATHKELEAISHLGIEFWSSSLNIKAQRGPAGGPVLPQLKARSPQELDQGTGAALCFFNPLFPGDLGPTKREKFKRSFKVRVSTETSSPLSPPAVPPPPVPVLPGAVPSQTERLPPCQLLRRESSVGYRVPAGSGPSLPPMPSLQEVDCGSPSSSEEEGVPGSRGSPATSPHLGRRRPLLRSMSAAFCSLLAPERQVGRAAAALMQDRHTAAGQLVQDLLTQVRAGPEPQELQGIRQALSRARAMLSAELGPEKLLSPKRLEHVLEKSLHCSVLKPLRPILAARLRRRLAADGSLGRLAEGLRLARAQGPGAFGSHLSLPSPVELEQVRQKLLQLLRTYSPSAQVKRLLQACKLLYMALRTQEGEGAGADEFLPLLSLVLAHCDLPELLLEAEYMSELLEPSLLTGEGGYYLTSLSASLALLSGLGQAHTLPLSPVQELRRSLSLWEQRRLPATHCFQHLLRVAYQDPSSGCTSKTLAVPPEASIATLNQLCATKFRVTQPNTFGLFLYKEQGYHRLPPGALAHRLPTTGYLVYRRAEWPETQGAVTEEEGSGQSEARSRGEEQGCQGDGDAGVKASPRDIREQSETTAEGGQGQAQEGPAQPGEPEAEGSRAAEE

Large T antigen, sequence (P03070 whole entry): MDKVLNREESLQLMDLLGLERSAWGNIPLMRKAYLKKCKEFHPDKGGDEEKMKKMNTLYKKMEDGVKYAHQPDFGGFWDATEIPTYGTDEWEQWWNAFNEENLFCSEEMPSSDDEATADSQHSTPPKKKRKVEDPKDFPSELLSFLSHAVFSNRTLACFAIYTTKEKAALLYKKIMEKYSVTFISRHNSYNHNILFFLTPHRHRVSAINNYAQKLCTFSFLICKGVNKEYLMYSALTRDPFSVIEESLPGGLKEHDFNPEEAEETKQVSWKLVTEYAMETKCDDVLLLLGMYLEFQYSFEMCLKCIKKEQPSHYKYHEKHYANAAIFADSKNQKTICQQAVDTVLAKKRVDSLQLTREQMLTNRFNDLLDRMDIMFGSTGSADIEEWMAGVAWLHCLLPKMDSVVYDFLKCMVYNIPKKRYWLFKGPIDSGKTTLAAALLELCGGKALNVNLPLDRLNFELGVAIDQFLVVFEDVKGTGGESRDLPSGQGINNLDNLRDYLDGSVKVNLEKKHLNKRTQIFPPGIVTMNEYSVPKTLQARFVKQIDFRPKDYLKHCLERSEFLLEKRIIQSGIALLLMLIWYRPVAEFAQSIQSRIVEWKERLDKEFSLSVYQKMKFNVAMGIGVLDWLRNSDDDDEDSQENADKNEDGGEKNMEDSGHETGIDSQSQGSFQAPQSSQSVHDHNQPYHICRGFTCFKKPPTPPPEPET
Paired box protein Pax-8, sequence (Q06710 whole entry): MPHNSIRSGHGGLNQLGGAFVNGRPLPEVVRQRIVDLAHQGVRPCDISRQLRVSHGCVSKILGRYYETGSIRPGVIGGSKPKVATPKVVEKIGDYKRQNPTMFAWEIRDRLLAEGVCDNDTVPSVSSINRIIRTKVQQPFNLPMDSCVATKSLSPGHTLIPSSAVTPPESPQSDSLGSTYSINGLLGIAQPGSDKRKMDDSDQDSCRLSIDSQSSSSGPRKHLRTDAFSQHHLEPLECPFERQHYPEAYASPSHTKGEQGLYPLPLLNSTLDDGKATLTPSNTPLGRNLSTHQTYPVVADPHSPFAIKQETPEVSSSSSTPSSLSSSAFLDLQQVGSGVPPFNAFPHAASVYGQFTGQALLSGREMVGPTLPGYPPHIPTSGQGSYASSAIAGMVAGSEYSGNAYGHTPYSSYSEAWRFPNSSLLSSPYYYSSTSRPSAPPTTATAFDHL

## NS(=O)(=O)c1cc(C(=O)NC2CCSc3ccccc32)ccc1Cl (centres undefined)
[1]
  IC50: 62.1 µM (active)

## O=C1c2ccccc2C(=O)c2[nH]c(O)nc21
[2]
  AC50: 5.72 µM (active)
[3]
  IC50: > 119 µM (inactive)

## CCOC(=O)C1=C(C)OC2(O)c3ccccc3C(=O)C12O (centres undefined)
[4]
  IC50: 11.1 µM (inactive)
